Assay results reported in US4937232A, “Inhibition of protein kinase C by long-chain bases” (priority 1988, dated 1990).

Legend:
HL-60 cells = experiment: Dioctanoylglycerol-induced attachment of HL-60 cells; format: cell-based; settings: Homo sapiens
Protocol: When 1,2-dioctanoylglycerol was used, the cells were treated essentially as described by Ebling et al Proc. Natl. Acad. Sci. U.S.A. 82, 815-819, 1985. Sphinganine was added to the cells, then dioctanoylglycerol in 1 μl of ethanol to yield 100 μM, followed by additional maintenance additions of 20 μm diacylglycerol every 2 h for 12 h.

[1] = tested on: phorbol ester binding site (protein kinase C) of neutrophils; experiment: Cellular [3H]-phorbol dibutyrate binding in neutrophils; set-up: species or system human; settings: 50 μM; 15 min
Protocol: Neutrophils (1×10^8 cells/ml) were preincubated with the indicated concentration of sphinganine, palmitic acid, or ceramide for five minutes prior to the addition of 50 nM (final concentration) of [^3 H]-phorbol dibutyrate (specific activity of 8.3 Ci/mMole). The cells were incubated an additional 15 min. in a shaking waterbath at 37° C. The incubation mixtures were filtered using an Amicon filtration manifold model VFM-III and washed 5 times with 5 mls of ice-cold PBS-glucose. The filters were counted using a Beckman LS7000 scintillation counter.

protein kinase M = experiment: Activity of the catalytic domain (protein kinase M); format: biochemical, rat
Protocol: Under these conditions, the bulk concentration of PS was 260 μM and diC18:1 was 86 μM. Therefore, 50% inhibition (100 μM) occurred on a molar basis equivalent to [diC18:1 ] or to 0.4 of [PS]. The potency of sphingosine inhibition was markedly affected by the number of Triton X-100 mixed micelles containing 7 mol % PS and 1 mol % diC18:1present in the assay (FIG. 11A). Thus, the effect of sphingosine was subject to surface dilution. When the data are expressed as mol %, (sphingosine:Triton X-100), sphingosine inhibition at four different levels of Triton X-100 mixed micelles (containing PS and diC18:1) was identical (FIG. 11B) implying that it is the number of sphingosine molecules present in each mixed micelle that determines the potency and not the absolute concentration. For surface active amphipathic molecules, the expression of inhibitor potencies must be relative to the amount of surface (micelles in this case) as bulk concentrations are misleading. […] To test this hypothesis, the catalytic domain (protein kinase M) was generated by proteolysis of protein kinase C^2. The activity of this catalytic domain which is independent of Ca^2+, phospholipid and DAG/phorbol esters was not inhibited by sphingosine (FIG. 10).
^2 The catalytic domain was generated by trypsin treatment of purified protein kinase C; and purified by Ultrogel AcA-44 molecular sieve chromatography. […]

protein kinase C = experiment: Mixed micellar protein kinase C activity assay for lysosphingolipids (Table VI); format: biochemical
Protocol: TABLE VI: Inhibition of protein kinase C activity and phorbol-dibutyrate binding by lysosphingolipids. […] The remaining two columns show the observed effects of the lysosphingolipids of protein kinase C activity and phorbol diester binding in vitro and in human platelets. Lysogangliosides were prepared from their parental gangliosides by hydrolysis in methanolic KOH esentially as described by Neuenhofer et al. in Bioch. 24, 525, 1985. During this preparation, with approximately 90-95% conversion, the N-acetate of N-acetylneuraminic acid is partially hydrolyzed. Fatty acids were partitioned into heptane after acidification of the methanolic reaction mixture. Galactosylsphingosine, glucosylsphingosine, and lactosylsphingosine were prepared as previously described for galactosylsphingosine (Radin, Lipids 9, 358, 1974) Sphingosylphosphorylcholine was prepared by hydrolysis in HCl-butanol (Kaller, Biochemische Zeitschrift 334, 451, 1961). The purity of the lyso derivatives (greater than 90%) was checked by thin layer chromatography (TLC) on silica gel H plates developed in chloroform/methanol/2N NH4 OH (65/35/9) and visualized by ninhydrin reaction for N-lyso compounds, by α-naphthol/sulfuric acid for both gangliosides and lysogangliosides,and by a phospholipid spray for sphingosylphosphorylcholine. Lysosphingolipids were quantitated by reaction of the amine group with trinitrobenzenesulfonate. Gangliosides and lysosphingolipids were also quantitated by reaction with anthrone. The lysosphingolipids were then studied for their effect on protein kinase C activity. Protein kinase C was purified to near homogeneity by the method of Wolf et al. (J. Biol. Chem. 260, 15718, 1985), and activity was measured using a mixed micellar assay (described herein). Lysosphingolipids were added directly in aqueous solution, and allowed to equilibrate with the Triton X-100 (0.3% w/v) mixed micelles containing 6 mol % phosphatidylserine and 2 mol % dioleoylglycerol. […] Phorbol-dibutyrate binding was measured in a mixed micellar assay. Lysosphingolipids inhibited phorbol-dibutyrate binding to protein kinase C in the presence of Triton X-100 mixed micelles containing 20 mol % phosphatidylserine. […] The difference is related to the higher concentration of phosphatidylserine used in the binding assay, as both activity and binding show a high cooperative dependence on phosphatidylserine, which modulates the inhibition by lysosphingolipids. Phorbol-dibutyrate binding to human platelets and 40 kDa phosphorylation in platelets were carried out as described above. Lysosphingolipids inhibited phorbol dibutyrate binding to human platelets at concentrations in the 10-50 μM range. Inhibition of 40 kDa phosphorylation occurred over the same concentration range.

human platelets = experiment: [3H]PDBu binding to human platelets
Protocol: Human platelets, prepared as described above, were suspended at a concentration of 2.5×10^8 platelet/ml. 50 μl of the platelets were then incubated for five minutes with the indicated concentration of sphingosine in Eppendorf microfuge tubes. Sphingosine was prepared in 50% ethanol at a concentration 100-fold the final concentration so that ethanol was kept at 0.5%. [^3 H]PDBu was added to 10 nM and incubated with the platelets at 37° for 10 minutes. The samples were then filtered on Whatman GF/C filters pre-washed with 5 ml of modified Tyrode's buffer containing 0.1% bovine serum albumin, washed with 10 ml of the same buffer, dried, and counted in 10 ml of Aquasol II in an LKB beta counter. Non-specific binding was determined in the presence of 1 μM unlabelled PDBu and subtracted from the total counts to yield the specific binding.

SMILES	activity at 1 µM (HL-60 cells; 1.0 μM sphinganine, compared to cells treated with diacylglycerol only, read-out: % Viable cells attached) [%]	activity at 2.5 µM (HL-60 cells; 2.5 μM sphinganine, compared to cells treated with diacylglycerol only, read-out: % Viable cells attached) [%]	activity at 5 µM (HL-60 cells; 5.0 μM sphinganine, compared to cells treated with diacylglycerol only, read-out: % Viable cells attached) [%]	IC50 (HL-60 cells; 100 μM dioctanoylglycerol, maintenance doses 20 μM every 2 h, read-out: concentration reducing dioctanoylglycerol-induced adherence by 50%) [µM]	displacement of [3H]-phorbol dibutyrate [1] [%]	inhibition of the catalytic domain (protein kinase M) (protein kinase M)	Inhibition of Protein Kinase C, concentration giving 50% inhibition, (mol %) (protein kinase C; 0.3% Triton X-100, 1 mol % = 43 μM)	IC50 (protein kinase C; 0.3% Triton X-100 mixed micelles, 6 mol % phosphatidylserine, 2 mol % dioleoylglycerol, read-out: Inhibition of Protein Kinase C, concentration giving 50% inhibition) [µM]	inhibition of [3H]PDBu binding to whole human platelets (human platelets)
CCCCCCCCCCCCCCC[C@@H](O)[C@@H](N)CO (relative stereo) [Sphinganine, erythro-dihydrosphingosine]	70 ± 32	63 ± 21	50 ± 25	~5	60	–	–	–	–
CCCCCCCCCCCCC/C=C/[C@@H](O)[C@@H](N)CO [sphingosine]	–	–	–	–	–	not inhibited	1.9	80	able to inhibit this binding
